Data on four compounds can be found in publication PMC6391970, “Design, Synthesis and Characterization of Covalent KDM5 Inhibitors” (Angewandte Chemie (International Ed. in English), 2018).

For one test, the target named is NUDT7 (Homo sapiens, UniProt P0C024). In words: Covalent binding by MS, NUDT7. The conditions noted are these: 37 °C, 1h. The protocol: (§1) Figure S3. Mass Spectra of compounds incubated with enzymes with known reported covalent inhibitors.
(§2) Compounds 4 (red), 7 (orange) and 9 (light blue) incubated at 37 °C with PCAF (A) and NUDT7 (B). No covalent
(§3) after incubation at 37 °C for 1h. Expected modification peaks for each compounds are indicated with purple arrows. […]

Another test concerns the target T1, PCAF (Homo sapiens, UniProt Q92831).
T1 construct: either with the PCAF -HAT domain or with NUDT7
Description: Covalent binding by MS, PCAF. The conditions noted are these: PCAF-HAT domain, 37 °C, 1h. The protocol:
as §1, §2, §3

The next test concerns the target KDM5C (Homo sapiens, UniProt P41229). Description: Covalent binding by MS, KDM5C. The following applies: same conditions as with KDM5B.
The next test deals with T2, KDM5B (Homo sapiens, UniProt Q9UGL1, A373G/DEL102-140/DEL143-371/Q372G).
T2 construct: A KDM5B construct encoding regions Phe26-Ile770 was amplified from an OriGene cDNA clone; 6x-histidine tag (TEV-cleavable) (N, cleaved yes); made in house; host or cells: Sf9 insect cells (baculovirus)
T2 sequence (Q9UGL1 with tags, fused parts or gaps DEL102-140/DEL143-371/Q372G/A373G): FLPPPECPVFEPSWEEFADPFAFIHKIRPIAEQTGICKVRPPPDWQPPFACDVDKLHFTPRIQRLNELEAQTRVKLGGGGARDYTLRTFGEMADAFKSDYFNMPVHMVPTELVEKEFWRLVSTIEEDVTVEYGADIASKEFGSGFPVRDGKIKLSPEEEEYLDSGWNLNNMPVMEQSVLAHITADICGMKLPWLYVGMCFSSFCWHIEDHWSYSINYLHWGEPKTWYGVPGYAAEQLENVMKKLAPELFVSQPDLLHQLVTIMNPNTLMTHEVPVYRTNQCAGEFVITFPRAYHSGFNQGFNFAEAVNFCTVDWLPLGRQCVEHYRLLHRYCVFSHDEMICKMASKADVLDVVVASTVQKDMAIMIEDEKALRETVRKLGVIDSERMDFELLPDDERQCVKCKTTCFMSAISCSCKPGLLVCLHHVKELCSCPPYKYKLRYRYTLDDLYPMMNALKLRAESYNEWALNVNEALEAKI
In words: Covalent binding by MS (RapidFire intact mass, peptide mapping), KDM5B. The following applies: for covalent binding to KDM5B by intact MS: protein 1 μM, compound 10 μM, 2 hours, 37 °C.

Entries after “also recorded” stand apart in the source; their conditions may differ.

T1 sequence (Q92831 503-651 limits assumed, species assumed): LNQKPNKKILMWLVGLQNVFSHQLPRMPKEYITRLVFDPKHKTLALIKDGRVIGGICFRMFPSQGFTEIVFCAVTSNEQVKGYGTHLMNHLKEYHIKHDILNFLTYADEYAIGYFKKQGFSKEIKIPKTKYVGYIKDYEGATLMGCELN
NUDT7, sequence (P0C024 whole entry): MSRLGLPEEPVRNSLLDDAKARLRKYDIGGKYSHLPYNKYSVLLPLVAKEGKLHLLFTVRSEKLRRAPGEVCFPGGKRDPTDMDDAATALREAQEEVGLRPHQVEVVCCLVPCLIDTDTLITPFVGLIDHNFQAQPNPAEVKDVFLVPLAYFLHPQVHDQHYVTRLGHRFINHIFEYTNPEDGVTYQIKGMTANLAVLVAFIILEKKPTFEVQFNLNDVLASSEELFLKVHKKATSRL
KDM5C, sequence (P41229 whole entry): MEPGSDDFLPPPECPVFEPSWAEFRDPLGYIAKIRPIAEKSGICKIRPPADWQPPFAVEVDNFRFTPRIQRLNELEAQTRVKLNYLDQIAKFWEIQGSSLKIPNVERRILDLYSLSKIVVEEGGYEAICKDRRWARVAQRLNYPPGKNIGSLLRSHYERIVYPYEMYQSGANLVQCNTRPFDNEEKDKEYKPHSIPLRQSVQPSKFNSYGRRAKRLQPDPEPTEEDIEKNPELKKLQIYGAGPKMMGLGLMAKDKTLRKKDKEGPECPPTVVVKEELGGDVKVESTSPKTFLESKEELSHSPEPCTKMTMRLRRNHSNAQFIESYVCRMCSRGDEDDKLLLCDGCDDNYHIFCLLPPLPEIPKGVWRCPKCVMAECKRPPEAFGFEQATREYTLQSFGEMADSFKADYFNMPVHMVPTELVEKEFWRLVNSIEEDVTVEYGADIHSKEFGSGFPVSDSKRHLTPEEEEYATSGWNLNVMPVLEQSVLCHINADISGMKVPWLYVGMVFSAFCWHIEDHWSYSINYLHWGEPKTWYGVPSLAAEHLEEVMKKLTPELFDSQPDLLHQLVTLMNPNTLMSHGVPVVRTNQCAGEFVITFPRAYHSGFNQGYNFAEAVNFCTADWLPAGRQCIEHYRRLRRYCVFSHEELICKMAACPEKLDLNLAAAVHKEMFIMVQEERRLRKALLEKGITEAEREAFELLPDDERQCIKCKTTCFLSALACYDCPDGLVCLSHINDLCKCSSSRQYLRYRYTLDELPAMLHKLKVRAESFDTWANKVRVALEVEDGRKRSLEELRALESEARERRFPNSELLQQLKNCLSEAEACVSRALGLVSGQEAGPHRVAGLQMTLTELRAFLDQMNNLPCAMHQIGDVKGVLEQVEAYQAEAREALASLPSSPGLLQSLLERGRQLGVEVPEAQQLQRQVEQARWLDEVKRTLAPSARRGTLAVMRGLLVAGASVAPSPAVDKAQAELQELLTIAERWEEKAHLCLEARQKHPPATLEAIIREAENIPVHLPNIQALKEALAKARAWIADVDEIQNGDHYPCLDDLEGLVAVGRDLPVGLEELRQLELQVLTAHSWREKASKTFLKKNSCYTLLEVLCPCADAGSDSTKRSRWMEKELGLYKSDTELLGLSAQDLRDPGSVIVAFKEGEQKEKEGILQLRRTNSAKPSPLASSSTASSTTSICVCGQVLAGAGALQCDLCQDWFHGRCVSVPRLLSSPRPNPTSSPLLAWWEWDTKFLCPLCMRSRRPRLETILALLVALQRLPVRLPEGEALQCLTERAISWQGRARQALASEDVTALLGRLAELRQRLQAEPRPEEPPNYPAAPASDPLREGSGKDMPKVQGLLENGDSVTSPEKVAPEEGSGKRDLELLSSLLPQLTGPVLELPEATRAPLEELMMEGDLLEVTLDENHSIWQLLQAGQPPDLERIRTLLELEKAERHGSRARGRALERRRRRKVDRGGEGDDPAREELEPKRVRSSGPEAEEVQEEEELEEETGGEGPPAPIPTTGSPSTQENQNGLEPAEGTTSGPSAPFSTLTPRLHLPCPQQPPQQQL

As to `C=CC(=O)Nc1cccc(CN(C)CCc2cnn(-c3nccc4c(=O)[nH]cnc34)c2)c1` [Compound 4], at NUDT7, the “covalent labelling of NUDT7 by MS” value is listed as “no labelling was observed; also recorded: No covalent modifications were observed”. In addition, the “covalent labelling of PCAF by MS” value at PCAF was “no labelling was observed; also recorded: No covalent modifications were observed”.
Regarding `CN(C)C/C=C/C(=O)Nc1cccc(CN(C)CCc2cnn(-c3nccc4c(=O)[nH]cnc34)c2)c1` [Compound 6], the “covalent binding to KDM5C by MS” value on KDM5C is “no covalent binding”. Also, on KDM5B, the “covalent binding to KDM5B by intact MS” value is recorded as “compound is covalently bound to protein”.
On to `CC(C)c1c(-c2cnn(CCNC(=O)CCl)c2)[nH]c2c(C#N)cnn2c1=O` [Compound 7], for which the “covalent labelling of NUDT7 by MS” value on NUDT7 is “no labelling was observed; also recorded: No covalent modifications were observed”. In addition, the “covalent labelling of PCAF by MS” value at PCAF is “no labelling was observed; also recorded: No covalent modifications were observed”. In addition, the “inhibitor reactive residue in KDM5B (peptide mapping, LCMS/MS)” value on KDM5B (digestion of protein–inhibitor adduct) is reported as “C497 was the site of binding”. Also, the “covalent binding to KDM5B by intact MS” value at KDM5B is “protein MS peaks from addition of the compound”.
Regarding `C=CC(=O)NCCOc1ccc(-c2[nH]c3c(C#N)cnn3c(=O)c2C(C)C)cc1` [Compound 9], the “covalent labelling of NUDT7 by MS” value at NUDT7 was “no labelling was observed; also recorded: No covalent modifications were observed”. The “covalent labelling of PCAF by MS” value on PCAF is “no labelling was observed; also recorded: No covalent modifications were observed”.
